In patent US8552176B2 (priority 2010, dated 2013):

Tests used:
Test in all cases: cells
Type in all cases: cell-based, human
NCI-H460 = settings: read-out: GI50 NCI-H460 lung
SF-268 = settings: read-out: GI50 SF-268 CNS
A549 = settings: read-out: GI50 A549 lung (+p53)
HT29 = settings: read-out: GI50 HT29 colorectal
MCF7 = settings: read-out: GI50 MCF7 breast
DU-145 = settings: read-out: GI50 DU-145 prostate
Hep3b = settings: read-out: GI50 Hep3b liver
H1299 = settings: read-out: GI50 H1299 lung (−p53)
HCT-15 = settings: read-out: GI50 HCT-15 colorectal
SKOV3 = settings: read-out: GI50 SKOV3 ovary

SMILES | GI50 (NCI-H460) [µM] | GI50 (SF-268) [nM] | GI50 (A549) [µM] | GI50 (HT29) [nM] | GI50 (MCF7) [µM] | GI50 (DU-145) [µM] | GI50 (Hep3b) [µM] | GI50 (H1299) [nM] | GI50 (HCT-15) [nM] | GI50 (SKOV3) [nM]
COC1C(O)C(CO)OC(N(CCCCc2ccc(N(CCCl)CCCl)cc2)OC)C1O (stereo not drawn) [Compound 33] | 7.8 ± 0.08 | 2800 ± 100 | 3.6 ± 0.2 | 2700 ± 200 | 8.3 ± 0.1 | 5.1 ± 0.1 | 4.2 ± 0.2 | 1700 ± 100 | 1100 ± 100 | 2400 ± 100
C=CCOC(=O)NCC1OC(N(CCCCc2ccc(N(CCCl)CCCl)cc2)OC)C(O)C(O)C1O (stereo not drawn) [Compound 35] | 11 ± 0.1 | 3100 ± 100 | 4.5 ± 0.3 | 2800 ± 200 | 7.4 ± 0.1 | 6.2 ± 0.4 | 4.6 ± 0.2 | 2100 ± 100 | 2100 ± 100 | 2900 ± 100
CON(CCCCc1ccc(N(CCCl)CCCl)cc1)C1OC(CCl)C(O)C(O)C1O (stereo not drawn) [Compound 36] | 5.8 ± 0.6 | 2100 ± 100 | 3 ± 0.1 | 2100 ± 100 | 4.9 ± 0.1 | 3.7 ± 0.1 | 3.2 ± 0.2 | 1300 ± 100 | 1200 ± 100 | 2100 ± 100
CON(CCCCc1ccc(N(CCCl)CCCl)cc1)C1OC(C(=O)O)C(O)C(O)C1O (stereo not drawn) [Compound 38] | 9.1 ± 0.9 | 1600 ± 100 | 5.5 ± 0.3 | 3200 ± 300 | 6 ± 0.1 | 3.9 ± 0.1 | 4.9 ± 0.3 | 990 ± 30 | 1030 ± 50 | 3100 ± 100
CON(CCCCc1ccc(N(CCCl)CCCl)cc1)C1O[C@H](CO)[C@@H](O[C@@H]2O[C@H](CO)[C@H](O)[C@H](O)[C@H]2O)[C@H](O)[C@@H]1O (stereo partly drawn) [Compound 46] | 57.7 ± 0.5 | 19100 ± 700 | 56 ± 1 | 34000 ± 3000 | 26 ± 2 | 43 ± 3 | 38 ± 2 | 24000 ± 1000 | 31000 ± 1000 | 35000 ± 1000
CON(CCCCc1ccc(N(CCCl)CCCl)cc1)[C@@H]1O[C@H](CO[C@H]2O[C@H](CO)[C@H](O)[C@H](O)[C@H]2O)[C@@H](O)[C@H](O)[C@H]1O [Compound 47] | 45.5 ± 0.4 | 16300 ± 500 | 40 ± 2 | 27400 ± 300 | 21 ± 2 | 36 ± 1 | 29 ± 3 | 17800 ± 60 | 20000 ± 1000 | 27000 ± 1000
CON(CCCCc1ccc(N(CCCl)CCCl)cc1)[C@@H]1O[C@H](CO)[C@@H](O)[C@H](O[C@H](C)C(=O)O)[C@H]1NC(C)=O [Compound 48] | 13.1 ± 0.3 | 4100 ± 100 | 8.6 ± 0.6 | 6300 ± 300 | 4.5 ± 0.3 | 8.9 ± 0.3 | 8 ± 0.4 | 2400 ± 200 | 3100 ± 200 | 7000 ± 200
CO[C@@H]1[C@@H](OC(N)=O)[C@@H](O)C(N(CCCCc2ccc(N(CCCl)CCCl)cc2)OC)OC1(C)C (stereo partly drawn) [Compound 49] | 9.7 ± 0.5 | 5100 ± 800 | 5.8 ± 0.8 | 6000 ± 100 | 4.8 ± 0.9 | 6.7 ± 0.5 | 6 ± 1 | 1300 ± 200 | 1700 ± 200 | 5400 ± 800
CON(CCCCc1ccc(N(CCCl)CCCl)cc1)C1CC(O)C(O)C(C)O1 (stereo not drawn) [Compound 50] | 5.7 ± 0.6 | 2300 ± 800 | 3.1 ± 0.2 | 3200 ± 200 | 3.1 ± 0.2 | 5.5 ± 0.1 | 3.8 ± 0.2 | 4800 ± 500 | 2500 ± 200 | 3200 ± 100
CON(CCCCc1ccc(N(CCCl)CCCl)cc1)C1OC(C)C(OC(C)=O)C(OC(C)=O)C1OC(C)=O (stereo not drawn) [Compound 52] | 7.8 ± 0.8 | 3000 ± 100 | 3.5 ± 0.1 | 4300 ± 200 | 3.2 ± 0.6 | 4.5 ± 0.1 | 4.6 ± 0.2 | 5000 ± 400 | 3700 ± 200 | 3900 ± 100
CON(CCCCc1ccc(N(CCCl)CCCl)cc1)C1OC[C@H](O)[C@H](O)[C@@H]1O (stereo partly drawn) [Compound 54, N-Methoxy-4-(4-N′,N′-bis(2-chloroethyl)amino)phenylbutylamino-L-riboside] | 5.7 ± 0.6 | 2100 ± 200 | 2.4 ± 0.1 | 2200 ± 100 | 0.97 ± 0.02 | 3.7 ± 0.1 | 2.4 ± 0.1 | 3300 ± 200 | 2100 ± 100 | 2000 ± 100
CON(CCCCc1ccc(N(CCCl)CCCl)cc1)C1OC(COCc2ccccc2)C(OCc2ccccc2)C1OCc1ccccc1 (stereo not drawn) [Compound 57] | > 100 | > 100000 | > 100 | > 100000 | > 100 | > 100 | > 100 | 82000 ± 7000 | > 100000 | > 100000
CON(CCCCc1ccc(N(CCCl)CCCl)cc1)[C@H]1O[C@H](CO)[C@H](O)[C@H](O)[C@@H]1O [Compound 58] | 5 ± 0.6 | 1700 ± 100 | 2.6 ± 0.1 | 1800 ± 400 | 1.5 ± 0.3 | 3.3 ± 0.1 | 2.4 ± 0.1 | 3000 ± 300 | 2200 ± 100 | 2000 ± 100
CON(CCCCc1ccc(N(CCCl)CCCl)cc1)[C@@H]1O[C@@H](CO)[C@@H](O)[C@@H](O)[C@H]1O [Compound 59] | 4.3 ± 0.4 | 1700 ± 100 | 2.7 ± 0.2 | 1900 ± 100 | 1.8 ± 0.3 | 3.4 ± 0.1 | 2.6 ± 0.1 | 2400 ± 200 | 2000 ± 100 | 2000 ± 100
CON(CCCCc1ccc(N(CCCl)CCCl)cc1)C1OCC(O)C1O (stereo not drawn) [Compound 61] | 1.9 ± 0.5 | 1300 ± 100 | 2 ± 0.2 | 1200 ± 100 | 0.87 ± 0.09 | 2.1 ± 0.1 | 1.4 ± 0.1 | 720 ± 30 | 820 ± 50 | 2100 ± 100
CON(CCCCc1ccc(N(CCCl)CCCl)cc1)C1OCC(O)C(O)C1O (stereo not drawn) [Compound 62] | 4.5 ± 0.4 | 1400 ± 100 | 2.3 ± 0.1 | 1600 ± 100 | 0.91 ± 0.09 | 2.3 ± 0.1 | 1.5 ± 0.1 | 830 ± 40 | 900 ± 50 | 2200 ± 100
CON(CCCCc1ccc(N(CCCl)CCCl)cc1)C1OCC(O)C(O)C1O (stereo not drawn) [Compound 63] | 2.9 ± 0.3 | 1500 ± 100 | 2.2 ± 0.1 | 1500 ± 100 | 1.2 ± 0.2 | 2.2 ± 0.1 | 1.6 ± 0.1 | 930 ± 30 | 830 ± 40 | 2400 ± 100
C[C@H]1OC(N(O)CCCCc2ccc(N(CCCl)CCCl)cc2)[C@H](O)[C@@H](O)[C@H]1O (stereo partly drawn) [Compound 66, N-Hydroxy-4-(4-N′,N′-bis(2-chloroethyl)amino)phenylbutylamino-D-fucoside] | 4.9 ± 0.2 | 1400 ± 100 | 6.4 ± 0.3 | 4600 ± 100 | 2.7 ± 0.1 | 5.7 ± 0.4 | 3.6 ± 0.3 | 2600 ± 100 | 3800 ± 300 | 4700 ± 100
